The values that follow come from US8716312B2, “Inhibitors of diacylglycerol acyltransferase” (Merck Sharp & Dohme Corporation, priority 2008, dated 2014).

The test addresses T1, human DGAT1 enzyme (Homo sapiens, UniProt O75907).
T1 sequence (O75907 1-488): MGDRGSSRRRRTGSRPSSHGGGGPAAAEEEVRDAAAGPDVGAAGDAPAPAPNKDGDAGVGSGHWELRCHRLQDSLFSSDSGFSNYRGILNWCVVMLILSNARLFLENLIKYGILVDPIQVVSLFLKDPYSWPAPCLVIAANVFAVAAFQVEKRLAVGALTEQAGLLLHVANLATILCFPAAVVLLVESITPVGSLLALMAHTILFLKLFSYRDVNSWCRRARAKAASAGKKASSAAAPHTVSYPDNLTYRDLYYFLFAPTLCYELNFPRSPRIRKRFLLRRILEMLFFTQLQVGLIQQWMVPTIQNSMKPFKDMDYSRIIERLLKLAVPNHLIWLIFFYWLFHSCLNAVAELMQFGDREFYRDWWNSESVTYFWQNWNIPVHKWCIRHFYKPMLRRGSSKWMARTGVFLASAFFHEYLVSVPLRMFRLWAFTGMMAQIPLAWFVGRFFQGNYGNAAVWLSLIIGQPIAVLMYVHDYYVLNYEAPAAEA
Nature of the test: in vitro DGAT1 inhibition assay (microsomes, [14C]-palmitoyl-CoA, SPA beads).
Protocol: The in vitro assay to identify DGAT1 inhibitors uses human DGAT1 enzyme expressed in Sf9 insect cells prepared as microsomes. The reaction is initiated by the addition of the combined substrates 1,2-dioleoyl-sn-glycerol and [^14C]-palmitoyl-Co A and incubated with test compounds and microsomal membranes for 2 hours at room temperature. The assay is stopped by adding 0.5 mg wheat germ agglutinin beads in assay buffer with 1% Brij-35 and 1% 3-cholamidopropyldimethyl-ammonio-1-propane sulfonate. Plates are sealed with TopSeal and incubated for 18 hours to allow the radioactive triglyceride product to come into proximity with the bead. Plates are read on a TopCount instrument.
Percent inhibition was calculated as the percent of (test compound inhibition minus non-specific binding) relative to (total binding minus non-specific binding). IC50 values were determined by curve fitting the data to a Sigmoidal dose-response in GraphPad Prism utilizing the following equation: Y=A+(B−A)/(1+10^((Log IC50−X))), where A and B are the bottom and top of the curve (highest and lowest inhibition), respectively, and X is the logarithm of concentration.
For `Cc1ccccc1NC(=O)c1ccc2c(c1)Cc1cc(NC(=O)c3oc(N4CCCC(C)C4)nc3C(F)(F)F)ccc1-2` (centres unmarked) [Compound 235, 2-(3-methylpiperidin-1-yl)-N-(7-(o-tolylcarbamoyl)-9H-fluoren-2-yl)-4-(trifluoromethyl)oxazole-5-carboxamide], the IC50 was in the range of 0.101 to 0.5 µM.

Turning to `O=C(Nc1ccc(N2CCN(c3nc4ccccc4o3)CC2)nc1)c1oc(N2CCC(c3ccccc3)CC2)nc1C(F)(F)F` [Compound 236], the IC50 was in the range of 0.101 to 0.5 µM.

For the compound `O=C(Nc1ccc(N2CCN(c3nc4ccccc4[nH]3)CC2)nc1)c1oc(N2CCC(c3ccccc3)CC2)nc1C(F)(F)F` [Compound 237, N-(6-(4-(1H-benzo[d]imidazol-2-yl)piperazin-1-yl)pyridin-3-yl)-2-(4-phenylpiperidin-1-yl)-4-(trifluoromethyl)oxazole-5-carboxamide], the IC50 lay within 0.101 to 0.5 µM.

In turn, `O=C(Nc1ccc(N2CCN(C(=O)C3Cc4ccccc4N3)CC2)nc1)c1oc(N2CCC(c3ccccc3)CC2)nc1C(F)(F)F` (centres unmarked) [Compound 240, N-(6-(4-(indoline-2-carbonyl)piperazin-1-yl)pyridin-3-yl)-2-(4-phenylpiperidin-1-yl)-4-(trifluoromethyl)oxazole-5-carboxamide] showed an IC50 of 0.101 to 0.5 µM.

`O=C(Nc1ccc(N2CCN(C(=O)C3CCc4ccccc4N3)CC2)nc1)c1oc(N2CCC(c3ccccc3)CC2)nc1C(F)(F)F` (centres unmarked) [Compound 241, 2-(4-phenylpiperidin-1-yl)-N-(6-(4-(1,2,3,4-tetrahydroquinoline-2-carbonyl)piperazin-1-yl)pyridin-3-yl)-4-(trifluoromethyl)oxazole-5-carboxamide] gave a half-inhibitory concentration (IC50) of 0.101 to 0.5 µM.

In turn, `O=C(Nc1ccc(N2CCN(C(=O)C3NCCc4ccccc43)CC2)nc1)c1oc(N2CCC(c3ccccc3)CC2)nc1C(F)(F)F` (centres unmarked) [Compound 242, 2-(4-phenylpiperidin-1-yl)-N-(6-(4-(1,2,3,4-tetrahydroisoquinoline-1-carbonyl)piperazin-1-yl)pyridin-3-yl)-4-(trifluoromethyl)oxazole-5-carboxamide] showed an IC50 of 0.101 to 0.5 µM.

In turn, `O=C(Nc1ccc(N2CCN(C(=O)C3Cc4ccccc4C3)CC2)nc1)c1oc(N2CCC(c3ccccc3)CC2)nc1C(F)(F)F` [Compound 244, N-(6-(4-(2,3-dihydro-1H-indene-2-carbonyl)piperazin-1-yl)pyridin-3-yl)-2-(4-phenylpiperidin-1-yl)-4-(trifluoromethyl)oxazole-5-carboxamide] returned a half-maximal inhibitory concentration (IC50) of 0.101 to 0.5 µM.

`O=C(Nc1ccc(N2CCN(C(=O)Nc3ccccc3F)C(=O)C2)nc1)c1oc(N2CCC(c3ccccc3)CC2)nc1C(F)(F)F` [Compound 248, N-(6-(4-(2-fluorophenylcarbamoyl)-3-oxopiperazin-1-yl)pyridin-3-yl)-2-(4-phenylpiperidin-1-yl)-4-(trifluoromethyl)oxazole-5-carboxamide] showed an IC50 of 0.101 to 0.5 µM.

The compound `CC1CCCN(c2nc(C(F)(F)F)c(C(=O)Nc3ccc(N4CCC(OCc5cccc(C(=O)O)c5)CC4)nc3)o2)C1` (centres unmarked) [Compound 254, 3-((1-(5-(2-(3-methylpiperidin-1-yl)-4-(trifluoromethyl)oxazole-5-carboxamido)pyridin-2-yl)piperidin-4-yloxy)methyl)benzoic acid] gave an IC50 of 0.011 to 0.1 µM.

Compound `CC1CCCN(c2nc(C(F)(F)F)c(C(=O)Nc3ccc(N4CCC(OCc5ccccc5C(=O)O)CC4)nc3)o2)C1` (centres unmarked) [Compound 255, 2-((1-(5-(2-(3-methylpiperidin-1-yl)-4-(trifluoromethyl)oxazole-5-carboxamido)pyridin-2-yl)piperidin-4-yloxy)methyl)benzoic acid] had an IC50 of 0.011 to 0.1 µM.

`O=C(O)c1cccc(COC2CCN(c3ccc(NC(=O)c4oc(N5CCC(c6ccccc6)CC5)nc4C(F)(F)F)cn3)CC2)c1` [Compound 256, 3-((1-(5-(2-(4-phenylpiperidin-1-yl)-4-(trifluoromethyl)oxazole-5-carboxamido)pyridin-2-yl)piperidin-4-yloxy)methyl)benzoic acid]: the IC50 lay in the range of 0.011 to 0.1 µM.

Turning to `O=C(O)c1cccc(OCC2CCN(c3ccc(NC(=O)c4oc(N5CCC(c6ccccc6)CC5)nc4C(F)(F)F)cn3)CC2)c1` [Compound 264, 3-((1-(5-(2-(4-phenylpiperidin-1-yl)-4-(trifluoromethyl)oxazole-5-carboxamido)pyridin-2-yl)piperidin-4-yl)methoxy)benzoic acid], the IC50 lay within 0.011 to 0.1 µM.

For `O=C(O)c1ccccc1OCC1CCN(c2ccc(NC(=O)c3oc(N4CCC(c5ccccc5)CC4)nc3C(F)(F)F)cn2)CC1` [Compound 266, 2-((1-(5-(2-(4-phenylpiperidin-1-yl)-4-(trifluoromethyl)oxazole-5-carboxamido)pyridin-2-yl)piperidin-4-yl)methoxy)benzoic acid], the IC50 is 0.101 to 0.5 µM.

As to `O=C(O)c1ccc(F)c(OCC2CCN(c3ccc(NC(=O)c4oc(N5CCC(c6ccccc6)CC5)nc4C(F)(F)F)cn3)CC2)c1` [Compound 268, 4-fluoro-3-((1-(5-(2-(4-phenylpiperidin-1-yl)-4-(trifluoromethyl)oxazole-5-carboxamido)pyridin-2-yl)piperidin-4-yl)methoxy)benzoic acid], the IC50 fell in the range of 0.011 to 0.1 µM.

The IC50 is the concentration at which inhibition is half-maximal. The low end stands for higher potency, the high end for lower potency.
